Article PMC3532720, “A Sugar Gustatory Receptor Identified from the Foregut of Cotton Bollworm Helicoverpa armigera” (Journal of Chemical Ecology, 2012)

biological target: T1, HaGR9 (Helicoverpa armigera, UniProt L0C9V2); test: calcium imaging, transfected Sf9 cells; assay type: cell-based; conditions: agonist; dose range 5 to 50 mM; HBSS buffer; control-cell response subtracted; Sf9 cells have endogenous sugar responses
T1 construct: gene GR9; native full-length receptor, 465 residues, untagged, cDNA from larval foregut, transiently expressed in Spodoptera frugiperda Sf9 cells, no co-receptor co-transfected
T1 sequence (L0C9V2 1-465): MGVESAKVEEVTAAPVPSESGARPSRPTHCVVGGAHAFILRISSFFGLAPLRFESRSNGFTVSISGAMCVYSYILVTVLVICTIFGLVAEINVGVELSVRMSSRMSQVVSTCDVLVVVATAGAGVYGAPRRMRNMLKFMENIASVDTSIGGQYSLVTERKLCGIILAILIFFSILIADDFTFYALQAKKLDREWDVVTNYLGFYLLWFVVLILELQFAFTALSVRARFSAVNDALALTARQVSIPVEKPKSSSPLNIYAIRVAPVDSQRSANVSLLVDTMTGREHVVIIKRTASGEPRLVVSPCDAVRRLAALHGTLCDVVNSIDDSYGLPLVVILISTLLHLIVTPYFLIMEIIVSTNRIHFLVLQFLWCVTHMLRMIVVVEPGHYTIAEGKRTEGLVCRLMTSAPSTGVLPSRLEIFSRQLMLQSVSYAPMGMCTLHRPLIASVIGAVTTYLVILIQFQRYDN

EC50 [mM]	SMILES
21.5 ± 1.1	OCC1(O)OC[C@@H](O)[C@@H](O)[C@@H]1O (stereo partly drawn) [D-fructose]
21.3 ± 1.1	OC[C@H]1OC(O)[C@H](O)[C@@H](O)[C@H]1O (stereo partly drawn) [D-galactose]
16.5 ± 1.3	OC[C@H]1O[C@H](O[C@H]2[C@H](O)[C@@H](O)C(O)O[C@@H]2CO)[C@H](O)[C@@H](O)[C@@H]1O (stereo partly drawn) [D-maltose]
